Results published in publication PMC6271077, “Synthesis, Anticancer and Antibacterial Activity of Salinomycin N-Benzyl Amides” (Molecules, 2014).
Values after ≈ are worked out from the molar mass of the structure shown. Where two headings read alike, the source gives them in different places.

Columns and labels:
[1] = tested on: LoVo; experiment: Antiproliferative SRB assay, LoVo; type: cell-based, human; details: for IC50: Homo sapiens, LoVo, 72 h, read-out: IC50 LoVo; for SI LoVo: SI = IC50 BALB/3T3 / IC50 LoVo
[2] = tested on: LoVo/dx; experiment: Antiproliferative SRB assay, LoVo/dx; type: cell-based, human; details: for IC50: Homo sapiens, LoVo/DX, 72 h, read-out: IC50 LoVo/dx; for IR LoVo/DX: IR = IC50 LoVo/dx / IC50 LoVo; for SI LoVo/DX: SI = IC50 BALB/3T3 / IC50 LoVo/dx
[3] = tested on: S. aureus ATCC 25923; experiment: MIC microdilution; type: cell-based; details: Staphylococcus aureus
[4] = tested on: S. aureus ATCC 29213; experiment: MIC microdilution; type: cell-based; details: Staphylococcus aureus
[5] = tested on: S. epidermidis ATCC 12228; experiment: MIC microdilution; type: cell-based; details: Staphylococcus epidermidis
[6] = tested on: MRSA 452/11; experiment: MIC microdilution, hospital MRSA; type: cell-based; details: Staphylococcus aureus
[7] = tested on: MRSA 462/11; experiment: MIC microdilution, hospital MRSA; type: cell-based; details: Staphylococcus aureus
[8] = tested on: MRSA 514/11; experiment: MIC microdilution, hospital MRSA; type: cell-based; details: Staphylococcus aureus
[9] = tested on: MRSA 522/12; experiment: MIC microdilution, hospital MRSA; type: cell-based; details: Staphylococcus aureus
[10] = tested on: MRSA 572/12; experiment: MIC microdilution, hospital MRSA; type: cell-based; details: Staphylococcus aureus
[11] = tested on: MRSA 573/12; experiment: MIC microdilution, hospital MRSA; type: cell-based; details: Staphylococcus aureus
[12] = tested on: MRSA 585/12; experiment: MIC microdilution, hospital MRSA; type: cell-based; details: Staphylococcus aureus
[13] = tested on: MRSA 586/12; experiment: MIC microdilution, hospital MRSA; type: cell-based; details: Staphylococcus aureus
[14] = tested on: MRSE 460/11; experiment: MIC microdilution, hospital MRSE; type: cell-based; details: Staphylococcus epidermidis
[15] = tested on: MRSE 466/11; experiment: MIC microdilution, hospital MRSE; type: cell-based; details: Staphylococcus epidermidis
[16] = tested on: MRSE 467/11; experiment: MIC microdilution, hospital MRSE; type: cell-based; details: Staphylococcus epidermidis
[17] = tested on: MRSE 468/11; experiment: MIC microdilution, hospital MRSE; type: cell-based; details: Staphylococcus epidermidis
[18] = tested on: MRSE 488/11; experiment: MIC microdilution, hospital MRSE; type: cell-based; details: Staphylococcus epidermidis
[19] = tested on: M. tuberculosis standard H37Rv strain; experiment: Tuberculostatic activity, test-tube dilution; type: cell-based; details: Mycobacterium tuberculosis, read-out: MIC M. tuberculosis Standard H37Rv Strain
[20] = tested on: M. tuberculosis isoniazid-sensitive strain (spec. 192); experiment: Tuberculostatic activity, test-tube dilution; type: cell-based; details: Mycobacterium tuberculosis, read-out: MIC M. tuberculosis Isoniazid-Sensitive Strain
[21] = tested on: standard and "wild" strains of M. tuberculosis; experiment: Tuberculostatic activity, all M. tuberculosis strains (overall); type: cell-based; details: Mycobacterium tuberculosis, H37RV, read-out: MIC (over M. tuberculosis strains)
[22] = ATCC25923, S. aureus ATCC 25923, 18 h, 35 °C, read-out: MIC
[23] = ATCC29213, S. aureus ATCC 29213, 18 h, 35 °C, read-out: MIC
[24] = ATCC12228, S. epidermidis ATCC 12228, 18 h, 35 °C, read-out: MIC
[25] = hospital MRSA strain 452/11, read-out: MIC
[26] = hospital MRSA strain 462/11, read-out: MIC
[27] = hospital MRSA strain 514/11, read-out: MIC
[28] = hospital MRSA strain 522/12, read-out: MIC
[29] = hospital MRSA strain 572/12, read-out: MIC
[30] = hospital MRSA strain 573/12, read-out: MIC
[31] = hospital MRSA strain 585/12, read-out: MIC
[32] = hospital MRSA strain 586/12, read-out: MIC
[33] = hospital MRSE strain 460/11, read-out: MIC
[34] = hospital MRSE strain 466/11, read-out: MIC
[35] = hospital MRSE strain 467/11, read-out: MIC
[36] = hospital MRSE strain 468/11, read-out: MIC
[37] = hospital MRSE strain 488/11, read-out: MIC

| Compound | IC50 ([1]; SRB, mean ± SD) [µM] | SI LoVo [1] | IC50 [2] [µM] | IR LoVo/DX [2] | SI LoVo/DX [2] | MIC [3, 22] [µg/mL] | MIC [4, 23] [µg/mL] | MIC [5, 24] [µg/mL] | MIC [6, 25] [µg/mL] | MIC [7, 26] [µg/mL] | MIC [8, 27] [µg/mL] | MIC [9, 28] [µg/mL] | MIC [10, 29] [µg/mL] | MIC [11, 30] [µg/mL] | MIC [12, 31] [µg/mL] | MIC [13, 32] [µg/mL] | MIC [14, 33] [µg/mL] | MIC [19] [µg/mL] | MIC [20] [µg/mL] | MIC [21] [µg/mL] | other results |
| --- | --- | --- | --- | --- | --- | --- | --- | --- | --- | --- | --- | --- | --- | --- | --- | --- | --- | --- | --- | --- | --- |
| CC[C@H](C(=O)NCc1ccc(F)cc1)C1CC[C@H](C)C([C@@H](C)[C@H](O)[C@H](C)C(=O)[C@H](CC)C2O[C@]3(C=C[C@@H](O)C4(CC[C@@](C)(C5CC[C@](O)(CC)[C@H](C)O5)O4)O3)[C@H](C)C[C@@H]2C)O1 (stereo partly drawn) [F-p] | 6.18 ± 0.91 | 1.40 | 3.29 ± 0.91 | 0.53 | 2.62 | 32 (≈ 37.3 µM) | 32 (≈ 37.3 µM) | 16 (≈ 18.6 µM) | 16 (≈ 18.6 µM) | 32 (≈ 37.3 µM) | 32 (≈ 37.3 µM) | 32 (≈ 37.3 µM) | 32 (≈ 37.3 µM) | 64 (≈ 74.6 µM) | 32 (≈ 37.3 µM) | 64 (≈ 74.6 µM) | 32 (≈ 37.3 µM) | 50 (≈ 58.3 µM) | 50 (≈ 58.3 µM) | 50 (≈ 58.3 µM) | MIC [15, 34]: 16 µg/mL (≈ 18.6 µM); MIC [16, 35]: 64 µg/mL (≈ 74.6 µM); MIC [17, 36]: 64 µg/mL (≈ 74.6 µM); MIC [18, 37]: 128 µg/mL (≈ 149 µM) |
| CC[C@@H](C(=O)[C@@H](C)[C@@H](O)[C@H](C)[C@@H]1O[C@@H]([C@@H](CC)C(=O)O)CC[C@@H]1C)[C@H]1O[C@]2(C=C[C@@H](O)[C@]3(CC[C@@](C)([C@H]4CC[C@](O)(CC)[C@H](C)O4)O3)O2)[C@H](C)C[C@@H]1C [SAL, Salinomycin] |  | 27.70 | 0.81 ± 0.32 | 1.72 | 16.07 |  |  |  |  |  |  |  |  |  |  |  |  | 25 (≈ 33.3 µM) | 25 (≈ 33.3 µM) | 25 to 50 (≈ 33.3 to 66.6 µM) | IC50 [1]: 0.47 ± 0.08 µM; MIC ([3]; ATCC25923, 18 h): 2 µg/mL (≈ 2.66 µM); MIC ([4]; ATCC29213, 18 h): 4 µg/mL (≈ 5.33 µM); MIC ([5]; ATCC12228, 18 h): 2 µg/mL (≈ 2.66 µM); MIC ([6]; MRSA): 16 µg/mL (≈ 21.3 µM); MIC ([7]; MRSA): 16 µg/mL (≈ 21.3 µM); MIC ([8]; MRSA): 8 µg/mL (≈ 10.7 µM); MIC ([9]; MRSA): 16 µg/mL (≈ 21.3 µM); MIC ([10]; MRSA): 16 µg/mL (≈ 21.3 µM); MIC ([11]; MRSA): 16 µg/mL (≈ 21.3 µM); MIC ([12]; MRSA): 16 µg/mL (≈ 21.3 µM); MIC ([13]; MRSA): 16 µg/mL (≈ 21.3 µM); MIC ([14]; MRSE): 16 µg/mL (≈ 21.3 µM); MIC ([15]; MRSE): 8 µg/mL (≈ 10.7 µM); MIC ([16]; MRSE): 16 µg/mL (≈ 21.3 µM); MIC ([17]; MRSE): 16 µg/mL (≈ 21.3 µM); MIC ([18]; MRSE): 16 µg/mL (≈ 21.3 µM) |
| CC[C@H](C(=O)NCc1ccc([N+](=O)[O-])cc1)C1CC[C@H](C)C([C@@H](C)[C@H](O)[C@H](C)C(=O)[C@H](CC)C2O[C@]3(C=C[C@@H](O)C4(CC[C@@](C)(C5CC[C@](O)(CC)[C@H](C)O5)O4)O3)[C@H](C)C[C@@H]2C)O1 (stereo partly drawn) [NO2-p] | 13.3 ± 1.94 | 0.52 | 20.4 ± 8.63 | 1.53 | 0.34 | 128 (≈ 145 µM) | 128 (≈ 145 µM) | 128 (≈ 145 µM) | 128 (≈ 145 µM) | 128 (≈ 145 µM) | 128 (≈ 145 µM) | 128 (≈ 145 µM) | 128 (≈ 145 µM) | 256 (≈ 289 µM) | 256 (≈ 289 µM) | 256 (≈ 289 µM) | 128 (≈ 145 µM) | 50 (≈ 56.5 µM) | 50 (≈ 56.5 µM) | 50 (≈ 56.5 µM) | MIC [15, 34]: 256 µg/mL (≈ 289 µM); MIC [16, 35]: 128 µg/mL (≈ 145 µM); MIC [17, 36]: 128 µg/mL (≈ 145 µM); MIC [18, 37]: 256 µg/mL (≈ 289 µM) |
